In ChEMBL document CHEMBL1201862, “PubChem BioAssay data set” (2004):
Active and inactive are the calls of the source.

Legend:
Troponin, cardiac muscle = Troponin, cardiac muscle (Homo sapiens, UniProt P19429+P45379+P63316); test: Fluorescence-based biochemical high throughput dose response assay for activators of the calcium sensitivity of cardiac Regulated Thin Filaments (RTF). [Related pubchem assays (depositor defined):AID493008, AID493018, AID504382, AID504383]; type: protein-complex assay
[1] = molecular target: G-protein coupled receptor 55 (Homo sapiens, UniProt Q9Y2T6); test: blockers of GPR55 signalling, imaged – imaging, image-based, counter-screen for GPR35 antagonist project, SAR follow-up (AID 2397); type: functional
Cytochrome P450 3A4 = Cytochrome P450 3A4 (Homo sapiens, UniProt P08684);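 further: CYP3A4 tested as one member of a cytochrome P450 panel screen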
[2] = molecular target: Peroxisome proliferator-activated receptor gamma/Nuclear receptor coactivator 2 (Homo sapiens, UniProt P37231); test: (§1) TR-FRET dose response biochemical High Throughput Screening assay for agonists of the steroid receptor coactivator 2 (SRC-2) recruitment by the peroxisome proliferator-activated receptor gamma (PPAR gamma): non-selective agonists. [Related pubchem assays: 1297, 1032 ]; type: functional
[3] = molecular target: Peroxisome proliferator-activated receptor gamma/Nuclear receptor coactivator 1 (Homo sapiens, UniProt P37231); test: as §1, with “1 (SRC-1)” for “2 (SRC-2)”, “assays (depositor defined):AID1300, AID1808, AID504735, AID631]” for “assays: 1297, 1032 ]”; type: protein assay
Streptokinase A = molecular target: T1, Streptokinase A (Streptococcus pyogenes serotype M1, UniProt P10520); test: viability-normalized secreted streptokinase activity reduction – plasminogen activation absorbance, OD405, dose response (AID 1914); type: functional, Streptococcus pyogenes M1 GAS;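 further: secreted streptokinase activity via plasminogen activation per viability signal from cell pellet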
T1 sequence (P10520 whole entry): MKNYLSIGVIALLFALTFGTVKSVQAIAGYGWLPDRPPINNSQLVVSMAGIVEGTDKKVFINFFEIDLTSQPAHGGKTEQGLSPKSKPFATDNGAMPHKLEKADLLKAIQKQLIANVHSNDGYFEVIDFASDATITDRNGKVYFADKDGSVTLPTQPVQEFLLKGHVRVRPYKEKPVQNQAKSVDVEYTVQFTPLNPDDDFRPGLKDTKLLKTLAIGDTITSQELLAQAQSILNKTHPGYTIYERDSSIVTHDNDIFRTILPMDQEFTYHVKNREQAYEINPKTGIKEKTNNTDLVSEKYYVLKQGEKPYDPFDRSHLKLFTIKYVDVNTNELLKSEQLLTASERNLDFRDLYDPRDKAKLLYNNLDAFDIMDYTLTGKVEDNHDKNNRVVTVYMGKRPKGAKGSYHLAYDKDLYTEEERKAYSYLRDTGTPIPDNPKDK

[4] = molecular target: Protein-tyrosine kinase 2-beta (Homo sapiens, UniProt Q14289);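 further: potency of inhibitors of PYK2 kinase phosphorylation of poly-GT substrate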
Streptococcus [5] = test: Luminescence Microorganism-Based Dose Response Follow up to Identify Compounds Cytotoxic to Streptococcus. [Related pubchem assays: 1677 (Project Summary), 1915, 1914, 1902 (Retest at Dose), 1900 (Counter Screen), 1662 (Primary HTS)]; type: functional, organism-based
[6] = viability of uninfected HEp-2 cells – cell-based, HTS, cytotoxicity control for RSV inhibitor project, dose response (AID 2410); type: functional; details: human respiratory syncytial virus
[7] = molecular target: Peroxisome proliferator-activated receptor gamma/Nuclear receptor coactivator 3 (Homo sapiens, UniProt P37231); test: as §1, with “3 (SRC-3)” for “2 (SRC-2)”, “1301 (Confirmation screen.), 1048 (Primary screen.)]” for “1297, 1032 ]”; type: functional
[8] = system: Streptococcus sp. 'group A'; test: Streptococcus pyogenes SK(-)GAS viability under kanamycin – luminescence, BacTiterGlo, confirmation, counter-screen for streptokinase expression inhibitor project, dose response (AID 1900); type: functional, organism-based
Streptococcus [9] = test: GAS UMAA2166 growth inhibition – luminescence, BacTiterGlo, counter-screen for streptokinase expression inhibitor project, dose response (AID 1915); type: functional, organism-based;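 further: potency for reduction of bacterial viability or growth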
Ion channel NompC = Ion channel NompC (Danio rerio, UniProt Q7T1G6); test: Dose response cell-based high-throughput screening assay for agonists of the transient receptor potential channel N1 (TRPN1). [Related pubchem assays (depositor defined):AID1424, AID1448]; type: functional
Mucolipin-3 = molecular target: T2, Mucolipin-3 (Homo sapiens, UniProt Q8TDD5); test: Fluorescence counterscreen assay for […] agonists: dose response cell-based high-throughput screening assay to identify agonists of the transient receptor potential channel ML3 (TRPML3). [Related pubchem assays: 1424, 1448 ]; type: functional
T2 sequence (Q8TDD5 whole entry): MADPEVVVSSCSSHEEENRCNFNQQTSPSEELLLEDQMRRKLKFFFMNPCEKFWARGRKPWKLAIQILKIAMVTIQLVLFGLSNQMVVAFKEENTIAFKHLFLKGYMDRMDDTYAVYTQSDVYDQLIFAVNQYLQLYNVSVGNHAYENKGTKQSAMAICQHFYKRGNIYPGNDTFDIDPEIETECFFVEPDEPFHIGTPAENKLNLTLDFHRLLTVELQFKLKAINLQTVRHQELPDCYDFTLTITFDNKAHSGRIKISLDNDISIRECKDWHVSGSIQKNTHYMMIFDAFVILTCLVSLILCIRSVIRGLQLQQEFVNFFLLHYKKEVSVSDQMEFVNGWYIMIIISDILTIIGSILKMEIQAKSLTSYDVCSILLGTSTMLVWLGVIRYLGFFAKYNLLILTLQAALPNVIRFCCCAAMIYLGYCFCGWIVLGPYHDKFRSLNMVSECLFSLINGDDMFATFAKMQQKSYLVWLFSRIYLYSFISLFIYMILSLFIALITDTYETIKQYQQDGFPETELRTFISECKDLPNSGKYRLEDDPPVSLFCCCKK

[10] = off-target signal loss in HeLa-CEM21 co-culture – HeLa F-luc CTL cells, cherry-picked, counter-screen for HIV-1 Env fusion inhibitor project, dose response (AID 652040); type: functional, cell-based;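 further: potency for signal decrease marking cytotoxic or nonspecific inhibition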

G-protein coupled receptor 55, sequence (Q9Y2T6 whole entry): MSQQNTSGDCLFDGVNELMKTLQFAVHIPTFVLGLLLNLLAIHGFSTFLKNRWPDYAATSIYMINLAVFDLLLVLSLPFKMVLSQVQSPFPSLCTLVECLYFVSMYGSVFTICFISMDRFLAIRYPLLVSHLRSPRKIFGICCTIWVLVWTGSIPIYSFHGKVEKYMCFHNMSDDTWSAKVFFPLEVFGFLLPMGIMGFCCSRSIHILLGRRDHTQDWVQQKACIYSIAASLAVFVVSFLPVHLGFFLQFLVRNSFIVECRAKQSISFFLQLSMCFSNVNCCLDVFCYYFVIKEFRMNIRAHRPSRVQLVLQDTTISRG
Protein-tyrosine kinase 2-beta, sequence (Q14289 whole entry): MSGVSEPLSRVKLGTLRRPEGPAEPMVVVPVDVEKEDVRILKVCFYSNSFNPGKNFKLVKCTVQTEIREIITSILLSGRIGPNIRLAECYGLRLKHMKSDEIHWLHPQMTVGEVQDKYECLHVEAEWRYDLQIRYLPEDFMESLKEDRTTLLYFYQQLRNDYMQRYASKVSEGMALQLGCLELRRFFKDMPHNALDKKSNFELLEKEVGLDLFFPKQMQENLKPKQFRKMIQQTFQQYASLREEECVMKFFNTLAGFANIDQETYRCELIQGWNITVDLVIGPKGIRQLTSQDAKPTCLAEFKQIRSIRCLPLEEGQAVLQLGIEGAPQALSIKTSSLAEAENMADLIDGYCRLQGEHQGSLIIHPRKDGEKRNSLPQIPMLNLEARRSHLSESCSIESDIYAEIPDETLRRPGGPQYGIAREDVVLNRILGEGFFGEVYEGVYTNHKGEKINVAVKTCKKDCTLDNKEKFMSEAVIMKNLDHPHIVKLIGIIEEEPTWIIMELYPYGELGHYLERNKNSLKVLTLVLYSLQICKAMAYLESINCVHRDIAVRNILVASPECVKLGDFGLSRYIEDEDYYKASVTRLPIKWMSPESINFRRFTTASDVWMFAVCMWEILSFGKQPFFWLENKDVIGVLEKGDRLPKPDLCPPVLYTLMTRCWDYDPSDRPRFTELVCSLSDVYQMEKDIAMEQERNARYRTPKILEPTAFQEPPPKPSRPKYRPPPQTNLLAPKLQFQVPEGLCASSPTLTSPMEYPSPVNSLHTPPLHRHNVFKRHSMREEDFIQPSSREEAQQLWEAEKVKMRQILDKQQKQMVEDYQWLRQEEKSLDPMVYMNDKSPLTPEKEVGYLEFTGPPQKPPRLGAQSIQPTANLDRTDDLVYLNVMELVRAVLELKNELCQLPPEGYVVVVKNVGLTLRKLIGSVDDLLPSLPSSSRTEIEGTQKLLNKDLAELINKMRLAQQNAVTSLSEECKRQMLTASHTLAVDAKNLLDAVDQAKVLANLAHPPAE
Peroxisome proliferator-activated receptor gamma/Nuclear receptor coactivator 2, sequence (P37231 whole entry): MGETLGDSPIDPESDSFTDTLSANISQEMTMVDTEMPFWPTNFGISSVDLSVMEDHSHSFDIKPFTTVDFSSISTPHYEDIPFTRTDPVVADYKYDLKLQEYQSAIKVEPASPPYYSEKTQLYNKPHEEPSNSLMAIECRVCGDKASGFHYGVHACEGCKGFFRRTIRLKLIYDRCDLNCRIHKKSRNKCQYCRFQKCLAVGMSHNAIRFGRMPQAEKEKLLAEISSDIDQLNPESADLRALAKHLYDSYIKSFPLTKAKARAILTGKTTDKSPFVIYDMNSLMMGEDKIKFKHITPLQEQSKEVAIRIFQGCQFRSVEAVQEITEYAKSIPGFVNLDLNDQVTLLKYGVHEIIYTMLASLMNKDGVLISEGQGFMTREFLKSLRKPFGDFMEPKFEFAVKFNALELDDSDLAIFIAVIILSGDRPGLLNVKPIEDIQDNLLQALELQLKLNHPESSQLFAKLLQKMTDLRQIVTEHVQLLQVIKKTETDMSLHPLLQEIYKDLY
Peroxisome proliferator-activated receptor gamma/Nuclear receptor coactivator 2, sequence (Q15596 whole entry, further chain): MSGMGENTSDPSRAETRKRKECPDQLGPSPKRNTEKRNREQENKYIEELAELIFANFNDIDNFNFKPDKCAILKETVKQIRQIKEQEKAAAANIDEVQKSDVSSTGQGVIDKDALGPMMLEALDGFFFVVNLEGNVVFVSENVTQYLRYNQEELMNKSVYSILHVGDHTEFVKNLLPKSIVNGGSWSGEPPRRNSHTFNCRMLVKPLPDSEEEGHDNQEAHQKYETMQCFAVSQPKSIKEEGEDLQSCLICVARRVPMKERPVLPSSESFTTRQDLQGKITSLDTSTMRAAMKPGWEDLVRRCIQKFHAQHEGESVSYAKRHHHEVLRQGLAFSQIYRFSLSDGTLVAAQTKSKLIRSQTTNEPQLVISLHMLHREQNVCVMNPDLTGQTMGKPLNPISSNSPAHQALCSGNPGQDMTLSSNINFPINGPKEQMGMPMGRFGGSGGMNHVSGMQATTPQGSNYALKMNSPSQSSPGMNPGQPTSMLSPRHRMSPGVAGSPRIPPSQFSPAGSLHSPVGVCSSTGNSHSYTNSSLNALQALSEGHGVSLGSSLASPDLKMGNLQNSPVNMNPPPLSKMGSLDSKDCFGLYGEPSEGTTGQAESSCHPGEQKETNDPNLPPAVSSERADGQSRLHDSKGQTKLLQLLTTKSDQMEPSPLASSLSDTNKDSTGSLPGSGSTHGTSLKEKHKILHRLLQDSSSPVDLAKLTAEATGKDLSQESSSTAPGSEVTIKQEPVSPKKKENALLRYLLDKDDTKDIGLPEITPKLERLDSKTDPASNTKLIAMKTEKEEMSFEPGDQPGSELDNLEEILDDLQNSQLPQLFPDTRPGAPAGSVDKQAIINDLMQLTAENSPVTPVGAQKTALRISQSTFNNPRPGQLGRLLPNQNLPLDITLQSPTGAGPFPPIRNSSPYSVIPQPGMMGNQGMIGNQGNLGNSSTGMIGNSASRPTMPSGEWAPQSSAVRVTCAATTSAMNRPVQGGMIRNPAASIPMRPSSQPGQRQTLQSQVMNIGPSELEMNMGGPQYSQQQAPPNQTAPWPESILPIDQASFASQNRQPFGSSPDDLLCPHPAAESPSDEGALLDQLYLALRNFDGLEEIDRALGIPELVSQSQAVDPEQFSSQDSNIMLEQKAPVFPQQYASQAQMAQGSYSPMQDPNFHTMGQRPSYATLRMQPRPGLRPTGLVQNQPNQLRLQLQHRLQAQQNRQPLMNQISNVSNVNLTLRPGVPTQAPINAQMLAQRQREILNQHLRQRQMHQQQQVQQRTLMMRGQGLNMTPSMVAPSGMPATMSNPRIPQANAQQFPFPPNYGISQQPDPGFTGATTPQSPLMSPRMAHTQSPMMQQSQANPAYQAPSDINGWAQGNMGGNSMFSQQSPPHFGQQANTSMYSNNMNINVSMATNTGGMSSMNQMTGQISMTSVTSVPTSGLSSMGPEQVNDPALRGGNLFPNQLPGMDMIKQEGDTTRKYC
Ion channel NompC, sequence (Q7T1G6 whole entry): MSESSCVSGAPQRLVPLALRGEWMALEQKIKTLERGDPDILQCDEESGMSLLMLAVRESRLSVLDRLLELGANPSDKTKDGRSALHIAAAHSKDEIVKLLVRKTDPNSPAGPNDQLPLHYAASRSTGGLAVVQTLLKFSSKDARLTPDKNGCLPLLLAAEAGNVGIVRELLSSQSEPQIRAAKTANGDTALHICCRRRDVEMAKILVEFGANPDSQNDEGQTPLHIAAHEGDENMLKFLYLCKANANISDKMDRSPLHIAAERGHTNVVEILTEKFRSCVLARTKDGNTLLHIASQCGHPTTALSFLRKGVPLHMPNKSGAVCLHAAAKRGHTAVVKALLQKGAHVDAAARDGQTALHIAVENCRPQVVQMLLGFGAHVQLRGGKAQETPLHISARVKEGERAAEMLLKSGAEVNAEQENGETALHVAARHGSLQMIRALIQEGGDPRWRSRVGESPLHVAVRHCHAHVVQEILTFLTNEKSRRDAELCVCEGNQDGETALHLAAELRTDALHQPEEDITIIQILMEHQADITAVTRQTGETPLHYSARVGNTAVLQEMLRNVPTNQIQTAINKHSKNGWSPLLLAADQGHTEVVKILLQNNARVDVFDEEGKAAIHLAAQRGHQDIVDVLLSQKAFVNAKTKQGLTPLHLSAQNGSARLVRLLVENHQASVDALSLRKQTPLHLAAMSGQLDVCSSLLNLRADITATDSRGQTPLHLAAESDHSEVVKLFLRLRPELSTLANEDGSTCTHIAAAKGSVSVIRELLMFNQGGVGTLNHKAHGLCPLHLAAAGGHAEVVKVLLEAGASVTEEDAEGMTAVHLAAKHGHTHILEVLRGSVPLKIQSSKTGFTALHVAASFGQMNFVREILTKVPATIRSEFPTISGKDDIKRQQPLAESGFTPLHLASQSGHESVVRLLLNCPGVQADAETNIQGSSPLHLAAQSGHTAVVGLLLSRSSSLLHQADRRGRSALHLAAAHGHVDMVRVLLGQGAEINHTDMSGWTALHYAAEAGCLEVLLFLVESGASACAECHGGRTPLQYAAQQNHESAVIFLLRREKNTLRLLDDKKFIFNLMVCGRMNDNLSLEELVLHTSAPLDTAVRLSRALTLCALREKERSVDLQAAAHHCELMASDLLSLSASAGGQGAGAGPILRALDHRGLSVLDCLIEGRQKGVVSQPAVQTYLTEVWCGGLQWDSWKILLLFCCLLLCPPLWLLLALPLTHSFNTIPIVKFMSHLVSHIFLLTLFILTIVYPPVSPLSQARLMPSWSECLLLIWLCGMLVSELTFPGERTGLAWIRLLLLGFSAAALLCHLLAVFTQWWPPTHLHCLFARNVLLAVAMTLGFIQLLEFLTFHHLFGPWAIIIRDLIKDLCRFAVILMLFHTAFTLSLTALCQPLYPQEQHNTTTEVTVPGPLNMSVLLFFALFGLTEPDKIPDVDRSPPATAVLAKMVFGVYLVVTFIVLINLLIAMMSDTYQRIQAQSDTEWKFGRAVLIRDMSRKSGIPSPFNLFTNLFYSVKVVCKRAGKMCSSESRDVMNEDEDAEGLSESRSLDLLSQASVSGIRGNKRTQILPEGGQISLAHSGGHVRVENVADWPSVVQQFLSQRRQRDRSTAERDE

COc1cc(CCCN2C(S)=NC[C@@H]2CC2CCCCC2)cc(OC)c1OC
EC50 (Troponin, cardiac muscle): > 71.5 µM (inactive)

Cc1nc(N2CCC(C)CC2)c2c(C)c(C(=O)Nc3ccc(C)c(F)c3)sc2n1
IC50 [1]: > 32 µM (inactive)

CCc1nnc(NC(=O)CCC(=O)N2CCN(c3ccccn3)CC2)s1
AC50 (Cytochrome P450 3A4): inconclusive

COc1ccc(-c2nc(-c3cccs3)c(-c3cccs3)[nH]2)cc1OC
EC50 [2]: 15.6 µM (not active) | EC50 [3]: 13.9 µM (inactive) | EC50 (Streptokinase A): 1.41 µM (active) | IC50 [4]: > 69.5 µM (not active) | EC50 (Streptococcus [5]): 5.41 µM (active) | CC50 [6]: 23.4 µM (active) | EC50 [7]: > 79.4 µM (not active) | EC50 [8]: 2.57 µM (active) | EC50 (Streptococcus [9]): > 150 µM (not active)

Cc1cc(O)nc(SCC(=O)Nc2ccccc2C)n1
EC50 (Ion channel NompC): > 29.9 µM (inactive) | EC50 (Mucolipin-3): > 29.9 µM (not active)

Cc1ccc(Cn2ncc3c(N4CCN(c5ccc(C)cc5)CC4)ncnc32)cc1
AC50 [10]: 6.95 µM (active) | IC50 [1]: > 32 µM (inactive)
